# Measured values reported in ChEMBL document CHEMBL1152427, “Antimicrobial natural products as beta-ketoacyl-acyl carrier protein synthase III inhibitors” (Bioorg Med Chem, 2009).
# Legend:
# Staphylococcus aureus [1] = experiment: Antibacterial activity against methicillin-resistant Staphylococcus aureus CCARM 3114 after 20 hrs by twofold serial broth dilution method; format: functional; details: CCARM 3114, 20 h
# Enterococcus faecalis [2] = experiment: Antibacterial activity against Enterococcus faecalis KCTC 2011 after 20 hrs by twofold serial broth dilution method; format: functional; details: KCTC 2011, 20 h
# Staphylococcus aureus [3] = experiment: Antibacterial activity against Staphylococcus aureus KCTC 1621 after 20 hrs by twofold serial broth dilution method; format: functional; details: KCTC 1621, 20 h
# Escherichia coli = experiment: Antibacterial activity against Escherichia coli after 20 hrs by twofold serial broth dilution method; format: functional
# [4] = target: T1, 3-oxoacyl-[acyl-carrier-protein] synthase 3 (Escherichia coli) (UniProt C3TDZ2); experiment: Binding affinity to Escherichia coli KAS3 expressed in Escherichia coli BL21 (DE3) by NMR analysis
# T1 sequence (whole entry): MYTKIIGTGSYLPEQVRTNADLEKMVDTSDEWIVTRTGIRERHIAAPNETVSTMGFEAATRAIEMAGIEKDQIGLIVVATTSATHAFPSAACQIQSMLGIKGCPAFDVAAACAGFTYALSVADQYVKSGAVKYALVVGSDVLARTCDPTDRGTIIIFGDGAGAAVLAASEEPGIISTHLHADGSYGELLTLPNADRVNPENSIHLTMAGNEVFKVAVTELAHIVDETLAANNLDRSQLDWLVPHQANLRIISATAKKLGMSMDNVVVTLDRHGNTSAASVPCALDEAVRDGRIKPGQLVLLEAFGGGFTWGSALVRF
# Enterococcus faecalis [5] = experiment: Antibacterial activity against vancomycin-resistant Enterococcus faecalis clinical isolates after 20 hrs by twofold serial broth dilution method; format: functional
# HaCaT [6] = experiment: Cytotoxicity against human HaCaT cells assessed as cell morphology at 100 uM after 24 hrs by phase contrast microscopy; format: cell-based
# HaCaT [7] = experiment: Cytotoxicity against human HaCaT cells assessed as cell survival at 100 uM after 24 hrs by MTT assay; format: cell-based
# [8] = Solubility of the compound; format: physicochemical
# [9] = Cytotoxicity against human HaCaT cells assessed as cell survival at 16 uM after 24 hrs by MTT assay; format: cell-based; details: read-out: Survival
SMILES,MIC (Staphylococcus aureus [1]) [µM],MIC (Enterococcus faecalis [2]) [µM],MIC (Staphylococcus aureus [3]) [µM],MIC (Escherichia coli) [µM],K [4],MIC (Enterococcus faecalis [5]) [µM],Activity (HaCaT [6]),Activity (HaCaT [7]),solubility [8],"viability at 24 h, 16 µM [9] [%]"
O=C(CCc1ccc(O)cc1)c1c(O)cc(O)cc1O [PHLORETIN],16,128,32,128,2.38 ×10⁷ /M,128,Not Active,Not Active,–,–
O=c1c(O)c(-c2ccc(O)cc2)oc2ccc(O)cc12,> 1020,> 1020,> 1020,> 1020,6.22 ×10⁶ /M,> 1020,–,–,–,–
C=C/C(C)=C/[C@@]1(C)SC(=O)C(C)=C1O [THIOLACTOMYCIN],128,256,256,128,1.18 ×10⁴ /M,128,–,–,–,–
COc1ccc(-c2coc3cc(O[C@@H]4O[C@H](CO)[C@@H](O)[C@@H](O)[C@@H]4O)cc(O)c3c2=O)cc1,> 1020,> 1020,> 1020,> 1020,5.6 ×10⁶ /M,> 1020,–,–,–,–
O=c1c(O)c(-c2ccccc2)oc2ccc(O)cc12,16,128,16,> 1020,1.32 ×10⁴ /M,256,–,–,Insoluble,90
